Patent US11033556B2, “Bicyclic sulfonamides” (priority 2019, dated 2021)
Where two headings read alike, the source gives them in different places.

What was measured:
HBV = assay: HBV-DNA Antiviral Assay Using HepG2.2.15 Cells; type: cell-based; conditions: HepG2.2.15 cells, extracellular HBV DNA by qPCR, read-out: EC50
Description: The following assay procedure describes the HBV antiviral assay. This assay uses HepG2.2.15 cells, which have been transfected with HBV genome, and extracellular HBV DNA quantification as endpoint. Cell viability is assessed in parallel by measuring the intracellular ATP content using the CellTiter-Glo® reagent from Promega.
On day 0, HepG2.2.15 cells were seeded in 96-well plates at a density of 6.0×10^4 cells/well(0.1 ml/well). The cells were incubated at 37° C. and 5% CO2.
On day 1, the test articles were diluted and added to cell culture wells (8 concentrations, 4-fold dilution, in duplicate). GLS4, Tenofovir and Sorafenib were used as reference compounds. 100 μl of culture medium containing the compounds was added to the plate, and the final total volume per well was 200 μl. The final concentration of DMSO in the culture medium was 0.5%. The plate map of compound treatment is shown below. The cells were cultured at 37° C. and 5% CO2 for 3 days.
On day 4, the plates were refreshed with culture media with compounds.
On day 7, cell viability was assessed using the CellTiter-Glo®, and the cell culture supernatants were collected for determination of HBV DNA by qPCR.
Extracellular DNA was isolated with QIAamp 96 DNA Blood Kit per the manufacturer's manual. HBV DNA was then quantified by qPCR with HBV specific primers and probes as specified in Table 2 using the FastStart Universal MasterMix from Roche on an ABI-7900HT. The PCR cycle program consisted of 95° C. for 10 min, followed by 40 cycles at 95° C. for 15 sec and 60° C. for 1 min.
A DNA standard was prepared by dilution of the pAAV2 HBV1.3 plasmid with concentrations ranging from 10 to 1×10^7 […] and used to generate a standard curve by plotting Ct value vs. the concentration of the HBV plasmid DNA standard. The quantity of HBV DNA in each sample was determined by interpolating from the standard curve.
Cell viability was calculated as follows: % Cell viability=(luminescence value of test sample−average luminescence value of blank)/(average luminescence value of 0.5% DMSO control−average luminescence of blank)×100%. HBV DNA inhibition was calculated as follows: 100−(HBV DNA copy number of test sample−HBV DNA copy number of ETV)/HBV DNA copy number of 0.5% DMSO control−HBV DNA copy number of ETV)×100%. The CC50, EC50 and EC90 values were determined by dose-response curves fitted by GraphPad Prism using “log (agonist) vs. response—Variable slope”.

genotype D HBV = assay: HBV-DNA Antiviral Assay Using HepG2.117 Cells; type: cell-based; conditions: intracellular HBV DNA by qPCR, day 4
Description: The following assay procedure describes the HBV antiviral assay, using HepG2.117 cells, which carry a stably integrated genotype D HBV genome under the control of a Tet-off promoter, and intracellular HBV DNA quantification as endpoint. Cell viability is assessed in parallel by measuring the intracellular ATP content using ATPlite (Perkin Elmer).
On day 0, HepG2.117 cells (which are maintained in routine cell culture with doxycycline present in the medium at a final concentration of 1 μg/mL) were seeded in 96-well plates (white with clear bottom) at a density of 2.0×10^4 cells/well (0.1 mL/well) in medium without doxycycline to induce pgRNA transcription and subsequent formation of HBV particles. The cells were incubated at 37° C. and 5% CO2.
On day 1, medium was removed from each well, the test articles were diluted in culture medium without doxcycyline and 100 μL was added to cell culture wells (9 concentrations, 4-fold dilution). For each plate, 6 untreated (merely DMSO) wells were included. The final concentration of DMSO in the culture medium was 2%. Each plate was prepared in duplicate (one for HBV DNA extraction, one for ATPlite measurement). The cells were incubated at 37° C. and 5% CO2 for 3 days.
On day 4, cell viability was assessed using ATPlite and cell lysates were prepared for HBV DNA extraction and subsequent quantification by qPCR.
Medium was removed from each well and 100 μL of 0.33% NP-40 in H2O was added to each well. Plates were sealed, incubated at 4° C. for 5 mins, vortexed extensively and centrifuged briefly. Next, 35 μL of lysate was added to 65 μL QuickExtract DNA Extraction Solution (Epicentre) in a PCR plate for each well. PCR plate was incubated at 65° C. for 6 mins, 98° C. for 2 mins and finally cooled to 4° C. HBV DNA was then quantified by qPCR with HBV-specific primers and probes as specified in Table 4 using the Bio-Rad SSOAdvanced Universal Probes Supermix on a CFX96 machine (Bio-Rad). The PCR cycle program consisted of 95° C. for 3 mins, followed by 40 cycles at 95° C. for 10 sec and 60° C. for 30 sec.
A DNA standard was prepared by dilution of an IDT gBlock corresponding to the amplicon with concentrations ranging from 10^2 to 10^8 copies/input (i.e. per 4 μL) and used to generate a standard curve by plotting Cq values vs. HBV DNA standard concentration. The quantity of HBV DNA in each sample was determined by interpolating from the standard curve.
Cell viability was calculated as follows: % Cell viability=(luminescence value of test sample)/(average luminescence value of 2% DMSO control)×100%. HBV DNA inhibition was calculated as follows: 100−(HBV DNA copy number of test sample)/(average HBV DNA copy number of 2% DMSO control)×100%. No normalization to entecavir was required due to the excellent dynamic window of this assay. The CC50, EC50 and EC90 values were determined by dose-response curves fitted by GraphPad Prism using “log (agonist) vs. response—Variable slope”.

[1] = Hepatitis B virus, one class for the group of four: *at least 2 of the diastereomers have the indicated activity

Compound	EC50 (HBV; day 7)	EC50 (genotype D HBV)	EC50 (HBV; [1])
C=C[C@H]1COc2c(cn(C)c2C(=O)Nc2ccc(F)c(C#N)c2)S(=O)(=O)N1 [Compound 1, (3S)—N-(3-cyano-4-fluorophenyl)-3-ethenyl-7-methyl-1,1-dioxo-2H,3H,4H-11λ6-pyrrolo[3,4-b][1,4,5]oxathiazepine-6-carboxamide]	< 1000 nM	1 to 10 nM	
C=C[C@H](O)[C@@H]1CCc2c(cn(C)c2C(=O)Nc2ccc(F)c(C#N)c2)S(=O)(=O)N1 [Compound 4C, (3S)—N-(3-cyano-4-fluorophenyl)-3-[(1S)-1-hydroxyprop-2-en-1-yl]-7-methyl-1,1-dioxo-2H,3H,4H,5H-1λ6-pyrrolo[3,4-f][1,2]thiazepine-6-carboxamide]			< 1000 nM
C=C[C@H](O)[C@H]1CCc2c(cn(C)c2C(=O)Nc2ccc(F)c(C#N)c2)S(=O)(=O)N1 [Compound 4B, (3R)—N-(3-cyano-4-fluorophenyl)-3-[(1S)-1-hydroxyprop-2-en-1-yl]-7-methyl-1,1-dioxo-2H,3H,4H,5H-1λ6-pyrrolo[3,4-f][1,2]thiazepine-6-carboxamide]			< 1000 nM
